Results as given in patent US7812022B2 (GlaxoSmithKline LLC, priority 2004, dated 2010).

Experiments:
[1] = target: T1, ErbB2 or EGFR; assay: ErbB family substrate phosphorylation enzyme assay (HTRF), Method A or Method B; assay type: biochemical
T1 construct: enzymes purified from a baculovirus expression system; Reagent production was conducted essentially as described in Brignola, P. S., et al, (2002) J. Biol. Chem. 277(2): 1576-1585
Summary of the method: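 Baculovirus-expressed EGFR or ErbB2 (0.8 or 10 nM in enzyme mix) phosphorylates biotinylated Peptide C with 20 µM ATP and 0.8 µM peptide (substrate-mix levels), MnCl2, pH 7.5. Reaction ran 90 min at 20 °C with EDTA stop and HTRF anti-phosphotyrosine read. Method A: enzyme added last; Method B: 1 h enzyme–compound preincubation.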

[2] = test system: BT474 and HN5 tumor cell lines; assay: Methylene blue growth inhibition assay (cellular Method A); assay type: cell-based, Human; settings: Homo sapiens, BT-474, 72 h, 3 days, read-out: Activity (Method): growth inhibition IC50 class
Summary of the method: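 Growth inhibition measured by methylene blue staining of biomass (OD 620) after 3 days' compound exposure at 37° C, final DMSO 0.3%. Cell lines: BT474 (10,000/well), HN5 (3,000/well) and Colo205, all in DMEM with 10% FBS; IC50 fitted by nonlinear regression against vehicle-treated wells.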

[3] = Method B: enzyme mix pre-incubated with compound 1 hour at 20° C., started with substrate mix
[4] = Method A: substrate mix added first, reaction started with enzyme mix

IC50 [2] [nM] | Structure (SMILES) | Activity (Method): pIC50 class against ErbB2 or EGFR [1, 3] | Activity (Method): pIC50 class against ErbB2 or EGFR [1, 4]
100 to 1000 | O=C(Nc1cccc(-c2nn3ccccc3c2-c2ccnc(Nc3cccc(F)c3)n2)c1)c1ccncc1 [Example 75, N-[3-(3-{2-[(3-Fluorophenyl)amino]-4-pyrimidinyl}pyrazolo[1,5-a]pyrindin-2-yl)phenyl]-4-pyridinecarboxamide] | +++ (B) (at least one pIC50 measurement of greater than 7 against either ErbB2 or EGFR) | –
100 to 1000 | Cc1ccsc1C(=O)Nc1cccc(-c2nn3ccccc3c2-c2ccnc(Nc3cccc(F)c3)n2)c1 [Example 77, N-[3-(3-{2-[(3-fluorophenyl)amino]-4-pyrimidinyl}pyrazolo[1,5-a]pyridin-2-yl)phenyl]-3-methyl-2-thiophenecarboxamide] | +++ (B) (at least one pIC50 measurement of greater than 7 against either ErbB2 or EGFR) | –
100 to 1000 | O=C(Nc1cccc(-c2nn3ccccc3c2-c2ccnc(Nc3cccc(F)c3)n2)c1)c1sccc1Cl [Example 79, 3-Chloro-N-[3-(3-{2-[(3-fluorophenyl)amino]-4-pyrimidinyl}pyrazolo[1,5-a]pyridin-2-yl)phenyl]-2-thiophenecarboxamide] | ++ (B) (at least one pIC50 measurement greater than 6 against either ErbB2 or EGFR but no measurement greater than pIC50 of 7) | –
100 to 1000 | O=C(Nc1cccc(-c2nn3ccccc3c2-c2ccnc(Nc3cccc(F)c3)n2)c1)c1sccc1Br [Example 80, 3-Bromo-N-[3-(3-{2-[(3-fluorophenyl)amino]-4-pyrimidinyl}pyrazolo[1,5-a]pyridin-2-yl)phenyl]-2-thiophenecarboxamide] | ++ (B) (at least one pIC50 measurement greater than 6 against either ErbB2 or EGFR but no measurement greater than pIC50 of 7) | –
100 to 1000 | O=C(Nc1cccc(-c2nn3ccccc3c2-c2ccnc(Nc3cccc(F)c3)n2)c1)c1ccsc1 [Example 81, N-[3-(3-{2-[(3-fluorophenyl)amino]-4-pyrimidinyl}pyrazolo[1,5-a]pyridin-2-yl)phenyl]-3-thiophenecarboxamide] | ++ (B) (at least one pIC50 measurement greater than 6 against either ErbB2 or EGFR but no measurement greater than pIC50 of 7) | –
100 to 1000 | Cn1cccc1C(=O)Nc1cccc(-c2nn3ccccc3c2-c2ccnc(Nc3cccc(F)c3)n2)c1 [Example 82, N-[3-(3-{2-[(3-fluorophenyl)amino]-4-pyrimidinyl}-pyrazolo[1,5-a]pyridin-2-yl)phenyl]-1-methyl-1H-pyrrole-2-carboxamide] | +++ (B) (at least one pIC50 measurement of greater than 7 against either ErbB2 or EGFR) | –
100 to 1000 | O=C(Nc1cccc(-c2nn3ccccc3c2-c2ccnc(Nc3ccon3)n2)c1)c1c(F)cccc1F [Example 85, 2,6-Difluoro-N-(3-{3-[2-(3-isoxazolylamino)-4-pyrimidinyl]pyrazolo[1,5-a]pyridin-2-yl}phenyl)benzamide] | – | +++ (A) (at least one pIC50 measurement of greater than 7 against either ErbB2 or EGFR)
< 100 | N#Cc1cc(Nc2nccc(-c3c(-c4cccc(NC(=O)c5c(F)cccc5F)c4)nn4ccccc34)n2)ccc1F [Example 88] | – | +++ (A) (at least one pIC50 measurement of greater than 7 against either ErbB2 or EGFR)
100 to 1000 | O=C(Nc1cccc(-c2nn3ccccc3c2-c2ccnc(Nc3ccc(Cl)c(C(F)(F)F)c3)n2)c1)c1c(F)cccc1F [Example 89] | – | ++ (A) (at least one pIC50 measurement greater than 6 against either ErbB2 or EGFR but no measurement greater than pIC50 of 7)
100 to 1000 | N#Cc1cc(Nc2nccc(-c3c(-c4cccc(NC(=O)c5c(F)cccc5F)c4)nn4ccccc34)n2)ccc1-n1cccc1 [Example 90] | – | ++ (A) (at least one pIC50 measurement greater than 6 against either ErbB2 or EGFR but no measurement greater than pIC50 of 7)
100 to 1000 | O=C(Nc1cccc(-c2nn3ccccc3c2-c2ccnc(Nc3ccc(Cl)cc3)n2)c1)c1c(F)cccc1F [Example 92] | – | ++ (A) (at least one pIC50 measurement greater than 6 against either ErbB2 or EGFR but no measurement greater than pIC50 of 7)
< 100 | Cc1cc(Nc2nccc(-c3c(-c4cccc(NC(=O)c5c(F)cccc5F)c4)nn4ccccc34)n2)ccc1C#N [Example 95] | +++ (B) (at least one pIC50 measurement of greater than 7 against either ErbB2 or EGFR) | –
100 to 1000 | O=C(Nc1cccc(-c2nn3ccccc3c2-c2ccnc(Nc3ccc(Nc4ccccc4)cc3)n2)c1)c1c(F)cccc1F [Example 96] | – | ++ (A) (at least one pIC50 measurement greater than 6 against either ErbB2 or EGFR but no measurement greater than pIC50 of 7)
100 to 1000 | O=C(c1ccccc1)c1ccc(Nc2nccc(-c3c(-c4cccc(NC(=O)c5c(F)cccc5F)c4)nn4ccccc34)n2)cc1 [Example 98, 2,6-Difluoro-N-{3-[3-(2-{[4-(phenylcarbonyl)phenyl]-amino}-4-pyrimidinyl)pyrazolo[1,5-a]pyridin-2-yl]phenyl}benzamide] | – | ++ (A) (at least one pIC50 measurement greater than 6 against either ErbB2 or EGFR but no measurement greater than pIC50 of 7)
< 100 | O=C(Nc1cccc(-c2nn3ccccc3c2-c2ccnc(Nc3ccc(N4CCOCC4)c(F)c3)n2)c1)c1c(F)cccc1F [Example 99, 2,6-Difluoro-N-{3-[3-(2-{[3-fluoro-4-(4-morpholinyl)-phenyl]amino}-4-pyrimidinyl)pyrazolo[1,5-a]pyridin-2-yl]phenyl}benzamide] | – | +++ (A) (at least one pIC50 measurement of greater than 7 against either ErbB2 or EGFR)
< 100 | O=C(Nc1cccc(-c2nn3ccccc3c2-c2ccnc(Nc3ccc(C(=O)N4CCOCC4)cc3)n2)c1)c1c(F)cccc1F [Example 100, 2,6-Difluoro-N-{3-[3-(2-{[4-(4-morpholinylcarbonyl)-phenyl]amino}-4-pyrimidinyl)pyrazolo[1,5-a]pyridin-2-yl]phenyl}benzamide] | – | +++ (A) (at least one pIC50 measurement of greater than 7 against either ErbB2 or EGFR)
< 100 | COc1ccc(Nc2nccc(-c3c(-c4cccc(NC(=O)c5c(F)cccc5F)c4)nn4ccccc34)n2)cc1N1CCNCC1 [Example 111, 2,6-Difluoro-N-{3-[3-(2-{[4-(methyloxy)-3-(1-piperazinyl)phenyl]amino}-4-pyrimidinyl)pyrazolo[1,5-a]pyridin-2-yl]phenyl}benzamide] | +++ (B) (at least one pIC50 measurement of greater than 7 against either ErbB2 or EGFR) | –
< 100 | CN(C)CCCc1ccc(Nc2nccc(-c3c(-c4cccc(NC(=O)c5c(F)cccc5F)c4)nn4ccccc34)n2)cc1 [Example 112, N-(3-{3-[2-({4-[3-(dimethylamino)propyl]phenyl}-amino)-4-pyrimidinyl]pyrazolo[1,5-a]pyridin-2-yl}phenyl)-2,6-difluorobenzamide] | +++ (B) (at least one pIC50 measurement of greater than 7 against either ErbB2 or EGFR) | –
< 100 | CN(C)CC(=O)Nc1ccc(Nc2nccc(-c3c(-c4cccc(NC(=O)c5c(F)cccc5F)c4)nn4ccccc34)n2)cc1 [Example 113, N-(3-{3-[2-({4-[(N,N-dimethylglycyl)amino]phenyl}-amino)-4-pyrimidinyl]pyrazolo[1,5-a]pyridin-2-yl}phenyl)-2,6-difluorobenzamide] | +++ (B) (at least one pIC50 measurement of greater than 7 against either ErbB2 or EGFR) | –
< 100 | O=C(Nc1cccc(-c2nn3ccccc3c2-c2ccnc(Nc3ccc4c(c3)OCCO4)n2)c1)c1c(F)cccc1F [Example 114, N-(3-{3-[2-(2,3-dihydro-1,4-benzodioxin-6-ylamino)-4-pyrimidinyl]pyrazolo[1,5-a]pyridin-2-yl}phenyl)-2,6-difluorobenzamide] | – | +++ (A) (at least one pIC50 measurement of greater than 7 against either ErbB2 or EGFR)
< 100 | COCCOc1ccc(Nc2nccc(-c3c(-c4cccc(NC(=O)c5c(F)cccc5F)c4)nn4ccccc34)n2)cc1Cl [Example 125, N-[3-(3-{2-[(3-Chloro-4-{[2-(methyloxy)ethyl]oxy}-phenyl)amino]-4-pyrimidinyl}pyrazolo[1,5-a]pyridin-2-yl)phenyl]-2,6-difluorobenzamide] | – | +++ (A) (at least one pIC50 measurement of greater than 7 against either ErbB2 or EGFR)
> 1000 | CN(CCCOc1ccc(N)cc1F)c1nccc(-c2c(-c3cccc(NC(=O)c4c(F)cccc4F)c3)nn3ccccc23)n1 [Example 130, N-[3-(3-{2-[{3-[(4-Amino-2-fluorophenyl)oxy]propyl}(methyl)amino]-4-pyrimidinyl}pyrazolo[1,5-a]pyridin-2-yl)phenyl]-2,6-difluorobenzamide] | – | ++ (A) (at least one pIC50 measurement greater than 6 against either ErbB2 or EGFR but no measurement greater than pIC50 of 7)
